{"source": "paper PMC3298469", "about": "“A selective and potent CXCR3 antagonist SCH 546738 attenuates the development of autoimmune diseases and delays graft rejection” (BMC Immunology, 2012)", "key": {"CCR7": {"biological_target": "CCR7 (Homo sapiens, UniProt P32248)", "sequence (P32248 25-378)": "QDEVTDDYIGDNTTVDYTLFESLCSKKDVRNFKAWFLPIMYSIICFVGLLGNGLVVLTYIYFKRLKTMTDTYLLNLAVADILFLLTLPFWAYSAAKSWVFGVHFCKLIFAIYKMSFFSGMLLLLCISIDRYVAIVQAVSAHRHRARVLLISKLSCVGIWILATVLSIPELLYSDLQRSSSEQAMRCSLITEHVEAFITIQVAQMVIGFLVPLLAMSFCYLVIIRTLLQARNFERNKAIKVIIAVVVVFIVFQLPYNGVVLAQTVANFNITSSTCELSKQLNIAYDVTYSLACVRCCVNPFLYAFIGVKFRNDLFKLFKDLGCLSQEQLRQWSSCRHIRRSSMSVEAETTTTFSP", "assay": "human activated T cell chemotaxis induced by CCL19", "format": "cell-based", "parameters": "endogenous in cells", "settings": "1, 10 or 100 nM compound", "protocol": "The preparation of human activated T cells was performed as described previously. Human peripheral blood lymphocytes were prepared by Ficoll-Hypaque centrifugation, depleted of monocytes, and stimulated for 2 days with 1 µg/ml PHA (Murex Diagnostics, Dartford, U.K.) and 100 U/ml IL-2 (Sigma, St. Louis, MO) in RPMI 1640 supplemented with 10% fetal bovine serum (FBS), 2 mM L-glutamine, 100 µg/ml streptomycin, 100 U/ml penecillin, 1% non-essential amino acids and 2 mM HEPES. Following stimulation, peripheral blood lymphocytes were cultured in above media containing 5% conditioned media (Sigma) for up to 15 days.\nHuman activated T cell chemotaxis assays were performed using 96-well ChemoTx® microplates (Neuro Probe, Inc., Gaithersburg, MD) with a 3 µm filter as per manufacturers' instructions. Activated T cells were washed with RPMI medium twice, and then resuspended in the medium containing 20% FBS. 1.25 × 10^5 cells/reaction were mixed with indicated concentrations of the compound and placed on the filter. The compound and chemokines were mixed and placed in the bottom well of the ChemoTx system. […] The number of migrated cells was measured using the Cell Titer Glo Luminescent Assay from Promega (Madison, WI) as per vendor's instructions. Chemotaxis is expressed as a chemotactic index, which is a ratio versus the one without chemokines (spontaneous migration). […]"}, "CXCR3": {"biological_target": "T1, CXCR3 (Homo sapiens, UniProt P49682)", "T1 sequence (P49682 1-368)": "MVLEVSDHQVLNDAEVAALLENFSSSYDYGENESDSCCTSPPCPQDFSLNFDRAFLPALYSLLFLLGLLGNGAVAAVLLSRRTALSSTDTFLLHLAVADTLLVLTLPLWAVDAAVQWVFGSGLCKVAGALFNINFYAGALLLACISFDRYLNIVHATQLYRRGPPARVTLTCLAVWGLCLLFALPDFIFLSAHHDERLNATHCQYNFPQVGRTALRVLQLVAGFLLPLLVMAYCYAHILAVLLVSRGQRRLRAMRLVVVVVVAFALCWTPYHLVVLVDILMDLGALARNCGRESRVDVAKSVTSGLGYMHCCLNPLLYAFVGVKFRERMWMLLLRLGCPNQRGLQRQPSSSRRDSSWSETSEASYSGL", "assay": "[125I]hCXCL11 competition binding (SPA, Ba/F3 membranes)", "parameters": "expressed in transfected cells; host or cells: mouse pro-B Ba/F3 cells (vector pME18Sneo), membrane preparation", "protocol": "The cDNAs encoding human, mouse and rat CXCR3 were generated based on the published sequences: human (NM_001504), mouse (NM_009910), rat (NM_053415). The cDNAs for monkey and dog CXCR3 were cloned in the lab. All CXCR3 cDNAs were cloned into the mammalian expression vector pME18Sneo, a derivative of the SRα expression vector as described previously. IL-3-dependent mouse pro-B cells Ba/F3 were transfected to express CXCR3 of different species and cell membranes were prepared as described previously.\nA scintillation proximity assay was used for radioligand competition binding assays as described previously with some modifications. For each assay point, 1 µg of membrane was preincubated for 1 hr with 300 µg wheat germ agglutinin (WGA) coated SPA beads (GE Healthcare Life Sciences) in the binding buffer (50 mM HEPES, 1 mM CaCl2, 5 mM MgCl2, 125 mM NaCl, 0.002% NaN3, 1.0% BSA) at room temperature. The beads were spun down, resuspended in the binding buffer and transferred to a 96-well Isoplate (Wallac, Gaithersburg, MD). The indicated concentrations of ^125I-hCXCL10, ^125I-hCXCL11 or ^35S-SCH 535390 with a series of titrations of SCH 546738 were added to start the reaction. After indicated reaction times at room temperature, the amount of radioactivity bound to the SPA beads was determined with a Wallac 1450 Microbeta counter (Wallac).\nThe ability of SCH 546738 to compete the binding of [^125I]hCXCL10 and [^125I]hCXCL11 to human CXCR3 receptor was determined using various concentrations of [^125I]hCXCL10 and [^125I]hCXCL11 as described in Methods. After 3 hr reaction, specific counts relative to input counts (B/B0) in the presence of increasing concentrations of SCH 546738 are plotted."}}, "note": "Like-named read-outs stand apart in the source and are kept apart here."}
{"smiles": "CC[C@H]1CN(c2nc(N)c(C(N)=O)nc2Cl)CCN1C1CCN(Cc2ccc(Cl)cc2)CC1", "note": "[SCH 546738]", "values": [{"measurement": "effect on T cell chemotaxis induced by the CCR7 ligand CCL19", "setting": "CCR7", "result": "did not affect"}, {"measurement": "IC50", "setting": "CXCR3; [125I-hI-TAC] 12.5 pM, 3 hr reaction, read-out: IC50", "result": 2, "unit": "nM"}, {"measurement": "IC50", "setting": "CXCR3; [125I-hI-TAC] 50 pM, 3 hr reaction, read-out: IC50", "result": 1.8, "unit": "nM"}, {"measurement": "IC50", "setting": "CXCR3; [125I-hI-TAC] 250 pM, 3 hr reaction, read-out: IC50", "result": 2.2, "unit": "nM"}, {"measurement": "IC50", "setting": "CXCR3; [125I]hCXCL11 12.5-250 pM, read-out: IC50 (constant, independent of input concentration)", "result": "~2", "unit": "nM"}]}
